# Data: patent publication US10894777B2, “TG2 inhibitor piperazine compounds and uses thereof” (UNIVERSITY OF OTTAWA, priority 2016, dated 2021)
# Tests used:
# [1] = tested on: shRNA-transduced U87, U251 and T98G cells; test: Agarose colony formation assay, TG2 shRNA-transduced cells; type: cell-based, human; settings: 10 μM, 2 weeks
# Experimental: Lentiviral vectors. Lentiviral knockdown vectors were prepared and used as previously described (Gundemir, S. et al., PLoS ONE 4(7):e6123, 2009; Barde, I. et al., Curr. Protoc. Neurosci. Chapter 4, Unit 4.21, 1-23, 2010).
# Agarose colony formation assay. Agarose colony formation assay was conducted as described (Horman, S. R. et al., J. Biomol. Screen 18(10):1298-308, 2013; Zhang, K. et al., Tumour Biol. 35(3):2537-48, 2014) using 6-well plates and 5,000 cells in each well. 10 μM NC9 or DMSO was added to every layer at the start of the experiments. 2 mL liquid MEM containing 10 μM NC9 or DMSO was used to cover the agarose and it was changed 3 times a week. Colony growth was monitored every day and at the end of 10-15 days, the colonies were fixed with 4% paraformaldehyde, stained with 0.005% crystal violet, washed with PBS twice and 40 random pictures were taken from each treatment group. A person blinded for the treatments measured the area of the colonies using ImageJ program and the volumes were calculated from the area data under the assumption that the colonies are perfect spheres. The volumes were used to compare the effect of NC9 on colony growth.
# [2] = tested on: A431 cells; test: Spheroid formation assay, A431 cells; type: cell-based, human; settings: 20 μM, 48 h on day 8 spheroids
# Experimental: In (A), it is shown that A431-derived ECS cells have elevated TG2 and mesenchymal markers. A431 cells (40,000 cells/well) were grown in spheroid media in monolayer conditions or as non-attached spheroids (ECS cells) for 10 d. Cells were harvested and lysates prepared for immunoblot. In (B), A431 cells were electroporated with 3 μg of control- or TG2-siRNA and at 72 h extracts were prepared to assay TG2 and EMT marker level. In (C), A431-derived ECS cells were electroporated with 3 μg of the indicated siRNA and then grown as spheroids for 96 h. […] In (D), A431 cells (500,000 cells/well) were plated in monolayer culture in spheroid media in 100 mm dishes. The following day, at time zero, 0 or 20 μM NC9 was added with fresh addition of medium and NC9 at 24 h. At 48 h the cells were harvested and extracts prepared for immunoblot. In (E), A431 cells were pretreated in 0 or 20 μM NC9 for 2 h and then harvested and 25,000 cells were seeded in the upper chamber above a matrigel-coated membrane in 1 mL of growth medium containing 1% FCS in a Millicell chamber. […] Confluent monolayers were then scratched with a 10-μL pipette tip, rinsed, and width of the wound was monitored for 0-14 h.
# Spheroid formation assay. […] Spheroid size and number was monitored with time in culture as previously described (Adhikary, G. et al., PLoS One 8:e84324, 2013).
# [3] = target: hTG1 (Homo sapiens, UniProt P22735); test: Colorimetric transamidase activity assay (AL5 substrate), hTG1; type: biochemical; settings: Table 9; Kitz and Wilson conditions
# Chain of hTG1 (P22735 whole entry): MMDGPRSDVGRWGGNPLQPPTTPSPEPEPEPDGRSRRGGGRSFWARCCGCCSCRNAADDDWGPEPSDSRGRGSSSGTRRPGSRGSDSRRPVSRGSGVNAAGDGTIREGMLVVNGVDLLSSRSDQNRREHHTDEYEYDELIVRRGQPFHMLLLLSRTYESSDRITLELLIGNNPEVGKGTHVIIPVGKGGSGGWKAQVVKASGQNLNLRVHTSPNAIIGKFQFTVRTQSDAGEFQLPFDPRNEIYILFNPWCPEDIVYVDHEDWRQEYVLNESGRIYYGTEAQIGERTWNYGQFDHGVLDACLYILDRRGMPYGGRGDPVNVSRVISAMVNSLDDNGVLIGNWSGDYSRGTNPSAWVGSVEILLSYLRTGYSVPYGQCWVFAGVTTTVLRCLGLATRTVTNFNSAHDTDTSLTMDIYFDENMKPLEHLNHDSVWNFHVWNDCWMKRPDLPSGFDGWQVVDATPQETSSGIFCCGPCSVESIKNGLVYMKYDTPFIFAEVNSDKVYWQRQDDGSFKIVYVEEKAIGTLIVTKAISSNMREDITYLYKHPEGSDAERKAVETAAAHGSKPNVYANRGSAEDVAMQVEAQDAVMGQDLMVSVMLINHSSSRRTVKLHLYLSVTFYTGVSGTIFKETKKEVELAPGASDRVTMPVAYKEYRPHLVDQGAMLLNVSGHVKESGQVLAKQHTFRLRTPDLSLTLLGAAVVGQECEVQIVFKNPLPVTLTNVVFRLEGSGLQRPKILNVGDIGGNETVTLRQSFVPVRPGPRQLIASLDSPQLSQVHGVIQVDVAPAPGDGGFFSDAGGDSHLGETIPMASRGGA
# Experimental: Selectivity of certain irreversible inhibitors over other members of the transglutaminase family was assessed. […] Inhibitors were tested using a continuous colorimetric assay (Leblanc, A. et al., Biochemistry (2001), 40 (28): 8335-8342) for hTG1 and hTG6 and a commercially available continuous fluorescent assay that utilizes a peptidic FRET quenched substrate (Oertel, K. et al., Anal. Biochem. (2007), 367 (2): 152-158; Király, R. et al., Amino Acids (2016), 48 (1): 31-40) for the other transglutaminases, FXIIIa and hTG3. The rate constant of enzyme inactivation (kobs) for a specific concentration of inhibitor was obtained using Kitz and Wilson conditions (Kitz, R. et al., J. Biol. Chem. (1962), 237: 3245-49). Inhibitor concentrations were adjusted to account for competition with substrates in each enzymatic reaction.
# In Vitro Assays. Colorimetric transamidase activity assay.
# [4] = tested on: A431 cells; test: EMT marker immunoblot, A431 cells; type: cell-based, human; settings: 20 μM, 48 h
# Experimental: In (A), it is shown that A431-derived ECS cells have elevated TG2 and mesenchymal markers. A431 cells (40,000 cells/well) were grown in spheroid media in monolayer conditions or as non-attached spheroids (ECS cells) for 10 d. Cells were harvested and lysates prepared for immunoblot. In (B), A431 cells were electroporated with 3 μg of control- or TG2-siRNA and at 72 h extracts were prepared to assay TG2 and EMT marker level. In (C), A431-derived ECS cells were electroporated with 3 μg of the indicated siRNA and then grown as spheroids for 96 h. […] In (D), A431 cells (500,000 cells/well) were plated in monolayer culture in spheroid media in 100 mm dishes. The following day, at time zero, 0 or 20 μM NC9 was added with fresh addition of medium and NC9 at 24 h. At 48 h the cells were harvested and extracts prepared for immunoblot. In (E), A431 cells were pretreated in 0 or 20 μM NC9 for 2 h and then harvested and 25,000 cells were seeded in the upper chamber above a matrigel-coated membrane in 1 mL of growth medium containing 1% FCS in a Millicell chamber. The lower chamber was filled with growth medium containing 10% FCS. […] Confluent monolayers were then scratched with a 10-μL pipette tip, rinsed, and width of the wound was monitored for 0-14 h. […]
smiles,measurement,setting,value
C=CC(=O)NCCCC[C@H](NC(=O)OCc1ccccc1)C(=O)NCCOCCOCCNS(=O)(=O)c1cccc2c(N(C)C)cccc12 [NC9],growth-retarding effect when TG2 expression is silenced,[1],completely lost
same,spheroid formation,[2],reduced spheroid formation
same,"kobs (10^−3 min^−1), TG1",[3],78.9 ± 5.9 10^−3 min^−1
same,EMT markers expression,[4],reduction in EMT markers expression
